Measured values taken from ChEMBL document CHEMBL1128886, “Synthesis and pharmacological evaluation of a novel series of 5-aryl benzimidazole angiotensin II receptor antagonists” (1995).
Active and inactive are the calls of the source. The rule behind the calls is not given here.

Tests used:
[1] = system: Rattus norvegicus; assay: Evaluated in vivo for its ability to block the pressor response to Ang II in pithed rats following oral administration; NA means not active at the dose (10 mg/kg) and time tested (4 h); format: functional, organism-based
[2] = target: T1, Type-1 angiotensin II receptor (Oryctolagus cuniculus) (UniProt P34976); assay: In vitro antagonist activity against Angiotensin II Receptor (Ang II) in isolated rabbit thoracic aorta.; format: functional, tissue-based
T1 sequence (whole entry): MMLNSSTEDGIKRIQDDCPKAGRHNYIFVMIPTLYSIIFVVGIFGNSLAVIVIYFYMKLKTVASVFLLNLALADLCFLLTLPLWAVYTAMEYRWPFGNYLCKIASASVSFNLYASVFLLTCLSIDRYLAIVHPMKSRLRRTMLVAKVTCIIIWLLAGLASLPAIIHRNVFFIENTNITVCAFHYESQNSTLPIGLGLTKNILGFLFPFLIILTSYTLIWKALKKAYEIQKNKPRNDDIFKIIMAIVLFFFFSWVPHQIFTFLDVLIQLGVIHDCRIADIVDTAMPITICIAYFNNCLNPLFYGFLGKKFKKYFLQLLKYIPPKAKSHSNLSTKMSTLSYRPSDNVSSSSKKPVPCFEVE

[3] = system: Rattus norvegicus; assay: Evaluated in vivo for its ability to block the pressor response to Ang II in pithed rats following oral administration.; format: functional

SMILES | pKB [2] | KB [1] | KB [3] [mg/kg]
CCCCCCC(C(=O)O)n1cnc2cc(-c3ccccc3S(=O)(=O)O)ccc21 (stereo in doubt; 4) | 7.7 | inactive | 
CCCCCCC(C(=O)O)n1cnc2cc(-c3ccccc3S(=O)(=O)O)ccc21 (stereo in doubt) | 5.6 |  | 
CCCCCC[C@H](C(=O)N1C[C@@H](Oc2ccccc2)C[C@H]1C(=O)O)n1cnc(NC(=O)c2ccccc2S(=O)(=O)O)c1 | 9.1 |  | 
CCCCCC[C@@H](C(=O)N1C[C@@H](Oc2ccccc2)C[C@H]1C(=O)O)n1cnc(NC(=O)c2ccccc2S(=O)(=O)O)c1 | 7.6 |  | 
CCCCCCC(C(=O)O)n1cnc(NC(=O)c2ccccc2S(=O)(=O)O)c1 (centres undefined) | 7.2 | inactive | 

Second part, led by results:

pKB [2] | SMILES | KB [1] | KB [3] [mg/kg]
8.4 | CCCCCC[C@@H](C(=O)N1C[C@@H](Oc2ccc(CC(=O)O)cc2)C[C@H]1C(=O)O)n1cnc(NC(=O)c2ccccc2S(=O)(=O)O)c1 | inactive | 
7.8 | CCCCCC[C@@H](C(=O)N1C[C@@H](Oc2ccc(CC(=O)O)cc2)C[C@H]1C(=O)O)n1cnc2cc(-c3ccccc3S(=O)(=O)O)ccc21 |  | 
9.7 | CCCCCC[C@H](C(=O)N1C[C@@H](Oc2ccc(CC(=O)O)cc2)C[C@H]1C(=O)O)n1cnc(NC(=O)c2ccccc2S(=O)(=O)O)c1 |  | 2.8
9 | CCCCCC[C@H](C(=O)N1C[C@@H](Oc2ccc(CC(=O)O)cc2)C[C@H]1C(=O)O)n1cnc2cc(-c3ccccc3S(=O)(=O)O)ccc21 | inactive | 
